Common to all, as to format: cell-based, human
In data set [1] the test system is intrinsic apoptotic pathway (cytochrome C release). Nature of the data set: Cytochrome C release from the mitochondria. As for the experimental part: Cytochrome C release was assessed on fresh unfrozen pellets using Sucrose/Mannitol buffer (Majewski et al., 2004). Full details in the supplementary material.
Protocol for Cytochrome C release is taken, as is, from Majewski et al 2004. Lysis buffer: 20 mM Hepes-KOH, [pH 7.5], 210 mM sucrose, and 70 mM mannitol; 1.5 mM MgCl2, 10 mM […], protease inhibitor, and 1 mg digitonin/1 mL lysis buffer.
Cells are trypsinized, collected and spun down in 4C. They are then washed with PBS and spun down again. It is critical that cell pellets will be lysed immediately without freezing. Cells are gently suspended, without vortexing, in lysis buffer. Roughly double the cell pellet volume is used. They are incubated in 25C for 3-10 min, depending all cell line. Spun down at 4C for 20 minutes at highest speed. Supernatant contains cytoplasmic fraction.

Data set [2] deals with pSTAT1 (interferon-STAT1 pathway). Kind of data set: Western blots of pSTAT1 levels. The settings on record: low- and high-pSTAT1 cell lines. The method, then: (§1) Control samples were collected untreated at time of treatment.
(§2) Samples for protein analysis were lysed using RIPA buffer. Protein concentration was assessed using BCA staining Samples were then normalized to a fixed concentration and mixed with a 5× glycerol/SDS/DTT loading buffer. Lysates were run on gradient (4-12%) Bis-Tris gels. After incubation with horseradish peroxidase-conjugated secondary antibodies, proteins were detected using chemiluminescence.

Data set [3] relates to melanoma cell lines (low- and high-pSTAT1). Kind of data set: Apoptosis assessed by TUNEL staining 72 h after treatment. Conditions: PD325901 50 nM. The method, then: as §1
Apoptosis was assessed by TUNEL staining Cells were plated in 6-well plates at 200K cells/well. […] TUNEL was performed using Invitrogen BrdU TUNEL kit.

In data set [4] the test system is caspase pathway (caspases 9, 7 and 3). Kind of data set: Cleaved caspases by Western blot. Conditions: MEK inhibition. As for the experimental part: as §1, §2
Background: In western blotting, separated proteins are transferred to a membrane and probed.

The test system of data set [5] is Ma1Me3M, a BRAF-V600E cell line. Nature of the data set: Comparison of BRAF and MEK inhibition, transcriptional response (Illumina HumanHT-12 microarrays). As for the experimental part: We assessed expression fold change at 1 hour, 2, 4, and 8 hours following treatment using Illumina HumanHT-12 microarrays.
Illumina's probe pvalues were used to filter out probes. Probes with p-value>0.05 in more than half of the samples were removed. Then microarrays were normalized according to their 75% percentile values. The 2 control array were averaged, and treated samples were compared to the averaged control to assess fold change.

The subject of the next data set is high pSTAT1 cell line. Kind of data set: Cytotoxicity of IFN by SubG1 percentage. Conditions: 48 hours after treatment. The method, then:
The cytotoxicity of IFN was assessed in high pSTAT1 cell line, 48 hours after treatment using SubG1 percentage. […] Cells plated in 6 well plates, 200K cells/well, in 2 mL of growth media. […] 50K cells per well were plated in 6-well plates with 2 mL of media and treated 24 hours later. Cells were counted every 24 hours up to 72 hours. C. […] Cells were plated in 6 well plates, 200K cells/well with 2 mL media.

The values below come from US20150086509A1, “COMPOSITIONS AND METHODS FOR TREATING CANCER USING INTERFERON AND MAPK PATHWAY INHIBITOR” (The Trustees of Columbia University in the City of New York, priority 2013, published 2015).

Entries after “also recorded” stand apart in the source; their conditions may differ.

`O=C(NOC[C@H](O)CO)c1ccc(F)c(F)c1Nc1ccc(I)cc1F` [PD325901]: the “time of cytochrome C release after treatment” value in data set [1] (MEKi) is listed as “approx. 36 hours”. For the same molecule, the “cytochrome C release” value in data set [1] (MEKi alone, all cell lines) is given as “activates the intrinsic apoptotic pathway by cytochrome C release”. In addition, in data set [2], the “pSTAT1 levels after treatment” value is “increase in pSTAT1 levels”. Also, the “cytotoxic effect of MEK inhibition alone (TUNEL)” value is given as “only mild response” in data set [3] (high-pSTAT1 cell lines); “mostly resistant” in data set [3] (high-pSTAT1 cell lines, listed as MEK inhibition); “sensitive” in data set [3] (low-pSTAT1 cell lines). In addition, the “cleavage/activation of caspase 7 and 9” value in data set [4] (high-pSTAT1 cell lines) was “not cleaved”; in data set [4] (low pSTAT1 cell lines), “cleaved and activated”.
Take `CCCS(=O)(=O)Nc1ccc(F)c(C(=O)c2c[nH]c3ncc(Cl)cc23)c1F` [PLX4720]: in data set [5] (2 uM PLX4720 vs 50 nM PD325901, BRAF-V600E cell line), the “transcriptional response compared with the MEK inhibitor PD325901” value is listed as “almost identical transcriptional response”. For the same molecule, the “difference in gene expression fold change between MEKi and BRAFi treatments” value in data set [5] (Ma1Me3M, all time points (1, 2, 4, 8 hours)) is on record as ≤ 0.5 fold (on a log 2 scale).
As to IFNα, in the data set with high pSTAT1 cell line, the “cytotoxic / apoptotic effect of IFN (SubG1 percentage)” value is recorded as “weaker cytotoxic effect than IFNβ; also recorded: dose-dependent effects”.
